Assay results: article PMC6979384, “Characterization of the plant homeodomain (PHD) reader family for their histone tail interactions” (Epigenetics & Chromatin, 2020)

Legend:
Assay in all cases: Histone peptide microarray
Format in all cases: binding, human
Conditions in all cases: sheet "Array Heatmap"
ING5 = system: ING5
In short: (§1)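 Using an optimized microarray protocol, purified GST-tagged PHD fingers were incubated at 0.5 μM on 293 histone peptides with single or multiple modifications, and array signal was recorded as the average of 4 replicates.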

PHF2 = system: PHF2
In short: as §1

CHD4 (PPCC) = system: CHD4 (PPCC)
In short: as §1

PHF13 = system: PHF13
In short: as §1

KDM7A = system: KDM7A
In short: as §1

RAG2 = system: RAG2
In short: as §1

CHD5 (PCC) = system: CHD5 (PCC)
In short: as §1

ING3 = system: ING3
In short: as §1

PHF23 = system: PHF23
In short: as §1

AIRE (PP) = system: AIRE (PP)
In short: as §1

PHF8 = system: PHF8
In short: as §1

TRIM66 (PB) = system: TRIM66 (PB)
In short: as §1

KDM4C (TTP) = system: KDM4C (TTP)
In short: as §1

SP140L = system: SP140L
In short: as §1

MORC3 (CW) = system: MORC3 (CW)
In short: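 GST-tagged PHD finger readers were expressed, purified and applied at 0.5 μM to a microarray of 293 synthetic histone peptides carrying single or combinatorial PTMs, using an optimized protocol. Binding signals are averages with standard deviation from 4 replicates.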

BPTF (PB) = system: BPTF (PB)
In short: as §1

PHRF1 (RP) = system: PHRF1 (RP)
In short: as §1

ING4 = system: ING4
In short: as §1

TAF3 = system: TAF3
In short: as §1

KDM5A (3) = system: KDM5A (3)
In short: as §1

BAZ2B = system: BAZ2B
In short: as §1

DPF2 (PPC2W2) = system: DPF2 (PPC2W2)
In short: as §1

KDM5A (1) = system: KDM5A (1)
In short: as §1

PHF21A = system: PHF21A
In short: as §1

KDM5B (3) = system: KDM5B (3)
In short: as §1

DIDO1 = system: DIDO1
In short: as §1

ING1 = system: ING1
In short: as §1

KDM5B (1) = system: KDM5B (1)
In short: as §1

MLL5 = system: MLL5
In short: as §1

CHD5 (PPCC) = system: CHD5 (PPCC)
In short: as §1

ING2 = system: ING2
In short: as §1

[1] = GST-tagged reader, histone peptide array, total n = 4

Q: With H3R17me2s: H3 1-20 [Peptide H3R17me2s] as the substance, how does the “Array Heatmap signal, ING5” value (ING5; [1]) read?
A: 0.3275

Q: What about the “Array Heatmap signal, PHF2” value (PHF2; [1]) of the same substance?
A: 0.5815

Q: What about the “Array Heatmap signal, CHD4 (PPCC)” value (CHD4 (PPCC); [1]) of the same substance?
A: 0.5449

Q: And the “Array Heatmap signal, PHF13” value (PHF13; [1])?
A: 0.5969

Q: And the “Array Heatmap signal, KDM7A” value (KDM7A; [1])?
A: 0.306

Q: And the “Array Heatmap signal, RAG2” value (RAG2; [1])?
A: 0.2456

Q: And the “Array Heatmap signal, CHD5 (PCC)” value (CHD5 (PCC); [1])?
A: 0.7264

Q: What about the “Array Heatmap signal, ING3” value (ING3; [1]) of the same substance?
A: 0.447

Q: What about the “Array Heatmap signal, PHF23” value (PHF23; [1]) of the same substance?
A: 0.5417

Q: What about the “Array Heatmap signal, AIRE (PP)” value (AIRE (PP); [1]) of the same substance?
A: 0.4113

Q: What about the “Array Heatmap signal, PHF8” value (PHF8; [1]) of the same substance?
A: 0.3293

Q: What about the “Array Heatmap signal, TRIM66 (PB)” value (TRIM66 (PB); [1]) of the same substance?
A: 0.6637

Q: What about the “Array Heatmap signal, KDM4C (TTP)” value (KDM4C (TTP); [1]) of the same substance?
A: 0.4268

Q: What about the “Array Heatmap signal, SP140L” value (SP140L; [1]) of the same substance?
A: 0.3428

Q: And the “Array Heatmap signal, MORC3 (CW)” value (MORC3 (CW); [1])?
A: 0.5429

Q: And the “Array Heatmap signal, BPTF (PB)” value (BPTF (PB); [1])?
A: 0.3293

Q: And the “Array Heatmap signal, PHRF1 (RP)” value (PHRF1 (RP); [1])?
A: 0.8026

Q: What about the “Array Heatmap signal, ING4” value (ING4; [1]) of the same substance?
A: 0.4307

Q: What about the “Array Heatmap signal, TAF3” value (TAF3; [1]) of the same substance?
A: 0.274

Q: And the “Array Heatmap signal, KDM5A (3)” value (KDM5A (3); [1])?
A: 0.5756

Q: And the “Array Heatmap signal, BAZ2B” value (BAZ2B; [1])?
A: 0.4477

Q: And the “Array Heatmap signal, DPF2 (PPC2W2)” value (DPF2 (PPC2W2); [1])?
A: 0.6998

Q: What about the “Array Heatmap signal, KDM5A (1)” value (KDM5A (1); [1]) of the same substance?
A: 0.4442

Q: And the “Array Heatmap signal, PHF21A” value (PHF21A; [1])?
A: 0.4345

Q: What about the “Array Heatmap signal, KDM5B (3)” value (KDM5B (3); [1]) of the same substance?
A: 0.5222

Q: What about the “Array Heatmap signal, DIDO1” value (DIDO1; [1]) of the same substance?
A: 0.6492

Q: What about the “Array Heatmap signal, ING1” value (ING1; [1]) of the same substance?
A: 0.5076

Q: And the “Array Heatmap signal, KDM5B (1)” value (KDM5B (1); [1])?
A: 0.601

Q: What about the “Array Heatmap signal, MLL5” value (MLL5; [1]) of the same substance?
A: 0.5344

Q: What about the “Array Heatmap signal, CHD5 (PPCC)” value (CHD5 (PPCC); [1]) of the same substance?
A: 0.5108

Q: And the “Array Heatmap signal, ING2” value (ING2; [1])?
A: 0.6161

Q: With H3.3K27me2 + S28p: H3.3 15-34 as the substance, how does the “Array Heatmap signal, ING5” value (ING5; GST-tagged ING5, arrays performed twice, total replicate number n = 4) read?
A: 0.3515

Q: What about the “Array Heatmap signal, PHF2” value (PHF2; GST-tagged PHF2, arrays performed twice, total replicate number n = 4) of the same substance?
A: 0.5406

Q: What about the “Array Heatmap signal, CHD4 (PPCC)” value (CHD4 (PPCC); GST-tagged CHD4 (PPCC), arrays performed twice, total replicate number n = 4) of the same substance?
A: 0.6277

Q: What about the “Array Heatmap signal, PHF13” value (PHF13; GST-tagged PHF13, arrays performed twice, total replicate number n = 4) of the same substance?
A: 0.6326

Q: What about the “Array Heatmap signal, KDM7A” value (KDM7A; GST-tagged KDM7A, arrays performed twice, total replicate number n = 4) of the same substance?
A: 0.3322

Q: What about the “Array Heatmap signal, RAG2” value (RAG2; GST-tagged RAG2, arrays performed twice, total replicate number n = 4) of the same substance?
A: 0.2608

Q: What about the “Array Heatmap signal, CHD5 (PCC)” value (CHD5 (PCC); GST-tagged CHD5 (PCC), arrays performed twice, total replicate number n = 4) of the same substance?
A: 0.7282

Q: And the “Array Heatmap signal, ING3” value (ING3; GST-tagged ING3, arrays performed twice, total replicate number n = 4)?
A: 0.4796

Q: What about the “Array Heatmap signal, PHF23” value (PHF23; GST-tagged PHF23, arrays performed twice, total replicate number n = 4) of the same substance?
A: 0.5303

Q: And the “Array Heatmap signal, AIRE (PP)” value (AIRE (PP); GST-tagged AIRE (PP), arrays performed twice, total replicate number n = 4)?
A: 0.3996

Q: And the “Array Heatmap signal, PHF8” value (PHF8; GST-tagged PHF8, arrays performed twice, total replicate number n = 4)?
A: 0.3445

Q: And the “Array Heatmap signal, TRIM66 (PB)” value (TRIM66 (PB); GST-tagged TRIM66 (PB), arrays performed twice, total replicate number n = 4)?
A: 0.5871

Q: What about the “Array Heatmap signal, KDM4C (TTP)” value (KDM4C (TTP); GST-tagged KDM4C (TTP), arrays performed twice, total replicate number n = 4) of the same substance?
A: 0.4645

Q: And the “Array Heatmap signal, SP140L” value (SP140L; GST-tagged SP140L, arrays performed twice, total replicate number n = 4)?
A: 0.3521

Q: And the “Array Heatmap signal, MORC3 (CW)” value (MORC3 (CW); GST-tagged MORC3 (CW), arrays performed twice, total replicate number n = 4)?
A: 0.3408

Q: And the “Array Heatmap signal, BPTF (PB)” value (BPTF (PB); GST-tagged BPTF (PB), arrays performed twice, total replicate number n = 4)?
A: 0.3515

Q: What about the “Array Heatmap signal, PHRF1 (RP)” value (PHRF1 (RP); GST-tagged PHRF1 (RP), arrays performed twice, total replicate number n = 4) of the same substance?
A: 0.4333

Q: And the “Array Heatmap signal, ING4” value (ING4; GST-tagged ING4, arrays performed twice, total replicate number n = 4)?
A: 0.4488

Q: And the “Array Heatmap signal, TAF3” value (TAF3; GST-tagged TAF3, arrays performed twice, total replicate number n = 4)?
A: 0.2725

Q: And the “Array Heatmap signal, KDM5A (3)” value (KDM5A (3); GST-tagged KDM5A (3), arrays performed twice, total replicate number n = 4)?
A: 0.4997

Q: And the “Array Heatmap signal, BAZ2B” value (BAZ2B; GST-tagged BAZ2B, arrays performed twice, total replicate number n = 4)?
A: 0.4685

Q: And the “Array Heatmap signal, DPF2 (PPC2W2)” value (DPF2 (PPC2W2); GST-tagged DPF2 (PPC2W2), arrays performed twice, total replicate number n = 4)?
A: 0.6352

Q: What about the “Array Heatmap signal, KDM5A (1)” value (KDM5A (1); GST-tagged KDM5A (1), arrays performed twice, total replicate number n = 4) of the same substance?
A: 0.4568

Q: And the “Array Heatmap signal, PHF21A” value (PHF21A; GST-tagged PHF21A, arrays performed twice, total replicate number n = 4)?
A: 0.4472

Q: And the “Array Heatmap signal, KDM5B (3)” value (KDM5B (3); GST-tagged KDM5B (3), arrays performed twice, total replicate number n = 4)?
A: 0.4734

Q: What about the “Array Heatmap signal, DIDO1” value (DIDO1; GST-tagged DIDO1, arrays performed twice, total replicate number n = 4) of the same substance?
A: 0.6639

Q: And the “Array Heatmap signal, ING1” value (ING1; GST-tagged ING1, arrays performed twice, total replicate number n = 4)?
A: 0.5375

Q: What about the “Array Heatmap signal, KDM5B (1)” value (KDM5B (1); GST-tagged KDM5B (1), arrays performed twice, total replicate number n = 4) of the same substance?
A: 0.6269

Q: And the “Array Heatmap signal, MLL5” value (MLL5; GST-tagged MLL5, arrays performed twice, total replicate number n = 4)?
A: 0.548

Q: And the “Array Heatmap signal, CHD5 (PPCC)” value (CHD5 (PPCC); GST-tagged CHD5 (PPCC), arrays performed twice, total replicate number n = 4)?
A: 0.5567

Q: What about the “Array Heatmap signal, ING2” value (ING2; GST-tagged ING2, arrays performed twice, total replicate number n = 4) of the same substance?
A: 0.6211
